From ChEMBL document CHEMBL3885881, “DrugMatrix”

Organism: Rattus norvegicus
Experiment: DrugMatrix - Regimen: Daily Repeat
Assay type: toxicity, organism-based, Sprague-Dawley
Parameters: regimen Daily Repeat, gender Male, age 6-8 weeks
Conditions: in vivo, po, route oral GAVAGE, vehicle 100 % WATER; for ABSOLUTE BASOPHIL / ABSOLUTE EOSINOPHIL / ABSOLUTE LYMPHOCYTE / ABSOLUTE MONOCYTE / ABSOLUTE SEGMENTED NEUTROPHIL / BASOPHIL / EOSINOPHIL / ERYTHROCYTE COUNT / HEMATOCRIT / HEMOGLOBIN / LEUKOCYTE COUNT / LYMPHOCYTE / MEAN CORPUSCULAR HEMOGLOBIN / MEAN CORPUSCULAR HEMOGLOBIN CONCENTRATION / MEAN CORPUSCULAR VOLUME / MONOCYTE / NEUTROPHIL / NUCLEATED RED BLOOD CELLS / PLATELET COUNT: tissue Blood; for ALANINE AMINOTRANSFERASE / ALBUMIN / ALKALINE PHOSPHATASE / ASPARTATE AMINOTRANSFERASE / BLOOD UREA NITROGEN / CARBON DIOXIDE / CHLORIDE / CHOLESTEROL / CREATINE PHOSPHOKINASE / CREATININE / GLUCOSE / LACTATE DEHYDROGENASE / LIPASE / PHOSPHORUS / POTASSIUM / SODIUM / TOTAL BILIRUBIN / TOTAL PROTEIN / URIC ACID: tissue Plasma
[1] = 0 mg/kg, 72 h, dose level Control, time 3 day
[2] = 0 mg/kg, 120 h, dose level Control, time 5 day
[3] = 10 mg/kg, 72 h, dose level Low, time 3 day

NNc1nncc2ccccc12 [HYDRALAZINE]
ABSOLUTE BASOPHIL [1]: 0 CELLS/uL
ABSOLUTE EOSINOPHIL [1]: 20.17 CELLS/uL
ABSOLUTE LYMPHOCYTE [1]: 12371.67 CELLS/uL
ABSOLUTE MONOCYTE [1]: 166 CELLS/uL
ABSOLUTE SEGMENTED NEUTROPHIL [1]: 1292.17 CELLS/uL
BASOPHIL [1]: 0%
EOSINOPHIL [1]: 0.17%
ERYTHROCYTE COUNT [1]: 5.46 x10E6/uL
HEMATOCRIT [1]: 34.38%
HEMOGLOBIN [1]: 13.32 G/DL
LEUKOCYTE COUNT [1]: 13.85 x10E3/uL
LYMPHOCYTE [1]: 88.5%
MEAN CORPUSCULAR HEMOGLOBIN [1]: 24.42 pg
MEAN CORPUSCULAR HEMOGLOBIN CONCENTRATION [1]: 38.7 G/DL
MEAN CORPUSCULAR VOLUME [1]: 63.07 fL
MONOCYTE [1]: 1.17%
NEUTROPHIL [1]: 10.17%
NUCLEATED RED BLOOD CELLS [1]: 0.17 /100WBC
PLATELET COUNT [1]: 1193.5 x10E3/uL
ALANINE AMINOTRANSFERASE [1]: 54.5 u/L
ALBUMIN [1]: 4.02 G/DL
ALKALINE PHOSPHATASE [1]: 346.5 u/L
ASPARTATE AMINOTRANSFERASE [1]: 103.17 u/L
BLOOD UREA NITROGEN [1]: 16.5 mg/dL
CARBON DIOXIDE [1]: 29.83 mmol/L
CHLORIDE [1]: 99.5 MEQ/L
CHOLESTEROL [1]: 72.5 mg/dL
CREATINE PHOSPHOKINASE [1]: 532.5 u/L
CREATININE [1]: 0.18 mg/dL
GLUCOSE [1]: 168.5 mg/dL
LACTATE DEHYDROGENASE [1]: 536.5 u/L
LIPASE [1]: 11.17 u/L
PHOSPHORUS [1]: 11.48 mg/dL
POTASSIUM [1]: 5.95 MEQ/L
SODIUM [1]: 140.5 MEQ/L
TOTAL BILIRUBIN [1]: 0.18 mg/dL
TOTAL PROTEIN [1]: 5.77 G/DL
URIC ACID [1]: 1.42 mg/dL
ABSOLUTE BASOPHIL [2]: 0 CELLS/uL
ABSOLUTE EOSINOPHIL [2]: 22.83 CELLS/uL
ABSOLUTE LYMPHOCYTE [2]: 12202.83 CELLS/uL
ABSOLUTE MONOCYTE [2]: 158 CELLS/uL
ABSOLUTE SEGMENTED NEUTROPHIL [2]: 1283 CELLS/uL
BASOPHIL [2]: 0%
EOSINOPHIL [2]: 0.17%
ERYTHROCYTE COUNT [2]: 5.88 x10E6/uL
HEMATOCRIT [2]: 36.62%
HEMOGLOBIN [2]: 14.07 G/DL
LEUKOCYTE COUNT [2]: 13.67 x10E3/uL
LYMPHOCYTE [2]: 89.5%
MEAN CORPUSCULAR HEMOGLOBIN [2]: 23.95 pg
MEAN CORPUSCULAR HEMOGLOBIN CONCENTRATION [2]: 38.43 G/DL
MEAN CORPUSCULAR VOLUME [2]: 62.28 fL
MONOCYTE [2]: 1.17%
NEUTROPHIL [2]: 9.17%
NUCLEATED RED BLOOD CELLS [2]: 0.17 /100WBC
PLATELET COUNT [2]: 1198 x10E3/uL
ALANINE AMINOTRANSFERASE [2]: 51 u/L
ALBUMIN [2]: 4.3 G/DL
ALKALINE PHOSPHATASE [2]: 343 u/L
ASPARTATE AMINOTRANSFERASE [2]: 89.83 u/L
BLOOD UREA NITROGEN [2]: 17.67 mg/dL
CARBON DIOXIDE [2]: 27.17 mmol/L
CHLORIDE [2]: 98.33 MEQ/L
CHOLESTEROL [2]: 82.5 mg/dL
CREATINE PHOSPHOKINASE [2]: 533.33 u/L
CREATININE [2]: 0.18 mg/dL
GLUCOSE [2]: 152.67 mg/dL
LACTATE DEHYDROGENASE [2]: 220.33 u/L
LIPASE [2]: 11.5 u/L
PHOSPHORUS [2]: 11.25 mg/dL
POTASSIUM [2]: 6.29 MEQ/L
SODIUM [2]: 140.53 MEQ/L
TOTAL BILIRUBIN [2]: 0.22 mg/dL
TOTAL PROTEIN [2]: 6.12 G/DL
URIC ACID [2]: 1.42 mg/dL
ABSOLUTE BASOPHIL [3]: 0 CELLS/uL
ABSOLUTE EOSINOPHIL [3]: 33.33 CELLS/uL
ABSOLUTE LYMPHOCYTE [3]: 12179.67 CELLS/uL
ABSOLUTE MONOCYTE [3]: 152 CELLS/uL
ABSOLUTE SEGMENTED NEUTROPHIL [3]: 1268.33 CELLS/uL
BASOPHIL [3]: 0%
EOSINOPHIL [3]: 0.33%
ERYTHROCYTE COUNT [3]: 5.03 x10E6/uL
HEMATOCRIT [3]: 31.97%
HEMOGLOBIN [3]: 12.87 G/DL
LEUKOCYTE COUNT [3]: 13.63 x10E3/uL
LYMPHOCYTE [3]: 89.67%
MEAN CORPUSCULAR HEMOGLOBIN [3]: 25.6 pg
MEAN CORPUSCULAR HEMOGLOBIN CONCENTRATION [3]: 40.27 G/DL
MEAN CORPUSCULAR VOLUME [3]: 63.57 fL
MONOCYTE [3]: 1%
NEUTROPHIL [3]: 9%
NUCLEATED RED BLOOD CELLS [3]: 0 /100WBC
PLATELET COUNT [3]: 1225.67 x10E3/uL
ALANINE AMINOTRANSFERASE [3]: 46.67 u/L
ALBUMIN [3]: 3.87 G/DL
ALKALINE PHOSPHATASE [3]: 333.67 u/L
ASPARTATE AMINOTRANSFERASE [3]: 83.33 u/L
BLOOD UREA NITROGEN [3]: 16 mg/dL
CARBON DIOXIDE [3]: 30.33 mmol/L
CHLORIDE [3]: 100.33 MEQ/L
CHOLESTEROL [3]: 61.33 mg/dL
CREATINE PHOSPHOKINASE [3]: 318 u/L
CREATININE [3]: 0.15 mg/dL
GLUCOSE [3]: 154 mg/dL
LACTATE DEHYDROGENASE [3]: 304.33 u/L
LIPASE [3]: 10.33 u/L
PHOSPHORUS [3]: 11.37 mg/dL
POTASSIUM [3]: 6.36 MEQ/L
SODIUM [3]: 141.6 MEQ/L
TOTAL BILIRUBIN [3]: 0.2 mg/dL
TOTAL PROTEIN [3]: 5.7 G/DL
URIC ACID [3]: 1.67 mg/dL
